Measured values reported in paper PMC3095640, “Potent Host-Directed Small-Molecule Inhibitors of Myxovirus RNA-Dependent RNA-Polymerases” (PLoS ONE, 2011).

Key:
[1] = test system: Influenza A/PR/8/34; test: Virus yield reduction assay, influenza A/PR/8/34; type: cell-based, influenza A strain PR8/34 (H1N1); conditions: genome copy numbers of released progeny particles by TaqMan RT-PCR
[2] = test system: SOI Influenza A/Texas; test: Virus yield reduction assay, SOI influenza A/Texas; type: cell-based, swine-origin influenza virus isolate S-OIV Texas; conditions: genome copy numbers of released progeny particles by TaqMan RT-PCR
[3] = test system: SOI Influenza A/Mexico; test: Virus yield reduction assay, SOI influenza A/Mexico; type: cell-based, swine-origin influenza virus isolate S-OIV Mexico; conditions: genome copy numbers of released progeny particles by TaqMan RT-PCR
[4] = test system: MuV (S. Africa); test: microbe, parasite or virus in culture; type: cell-based, mumps virus strain South Africa; conditions: Mumps orthorubulavirus; titered through plaque assaying
[5] = Cytotoxicity (metabolic activity), HT1080; type: cell-based; conditions: human, HT1080 cells, highest concentration assessed 75 µM
Experimental: (§1) A non-radioactive cytotoxicity assay (CytoTox 96 Non-Radioactive Cytotoxicity Assay, Promega) was employed to determine the metabolic activity of cell after exposure to the compound. In a 96-well plate format, 10,000 cells per well were incubated at 37°C for 24 hours in four replicates per concentration tested in the presence of compound in two-fold dilutions starting at 75 µM. Substrate was then added and color development measured at 490 nm using a BioRad plate reader. Values were calculated according to the formula [% toxicity = 100−((experimental-background)/(maximum(vehicle treated)-background)*100)]. Values were plotted in dose-response curves and, if applicable, CC50 concentrations calculated.

[6] = Cytotoxicity (metabolic activity), NIH-3T3; type: cell-based, Rodent-mouse; conditions: mouse, NIH-3T3 cells, highest concentration assessed 75 µM
Experimental: as §1

[7] = Cytotoxicity (metabolic activity), BHK-21; type: cell-based, Rodent-Syrian hamster; conditions: Syrian hamster, BHK-21 cells, highest concentration assessed 75 µM
Experimental: as §1

[8] = Cytotoxicity (metabolic activity), CHO; type: cell-based, Rodent-Chinese hamster; conditions: Chinese hamster, CHO cells, highest concentration assessed 75 µM
Experimental: as §1

[9] = test system: PBMCs; test: Metabolic activity of primary human PBMCs; type: cell-based; conditions: 24 hours exposure
Experimental: as §1

[10] = test system: smooth muscle cells; test: Metabolic activity of primary human smooth muscle cells; type: cell-based; conditions: 24 hours exposure
Experimental: as §1

[11] = test system: bronchial epithelial cells; test: Metabolic activity of primary human bronchial epithelial cells; type: cell-based; conditions: 24 hours exposure
Experimental: as §1

[12] = test system: different established cell lines (HeLa, A549, HepG2, Vero-Slam, MDCK); test: Metabolic activity of different established cell lines; type: cell-based, human, primate, canine; conditions: at 75 µM, 24 hours
Experimental: as §1

[13] = Metabolic stability in human liver S9 fractions; type: in vitro ADME
Experimental: JMN3-003 was mixed with liver S9 fractions (protein concentration 2.5 mg/ml) from pooled mixed gender humans (XenoTech) at a final concentration of 1 µM and reactions initiated by the addition of cofactors (1.14 mM NADPH, 1.43 mM glucose-6-phosphate, 1.43 mM uridine 5′-diphosphoglucuronic acid, 9.42 mM potassium chloride, 2.28 mM magnesium chloride) in 100 mM potassium phosphate buffer, pH 7.4. Samples were incubated at 37°C with mixing, aliquots removed after 0, 15, 30 and 60 minutes and subjected to reversed-phase LC-MS/MS (Applied Biosystems API 4000 QTRAP with heated nebulizer; Turbo IonSpray for JMN5-166) analysis. Peak areas were measured to calculate half life and percent of input compound remaining according to the formulas t1/2 = (−0.693/slope of linear regression analysis of log transformed peak area versus) and % input remaining = (peak area of test compound at tx/peak area of test compound at t0)*100. Positive controls to assess the metabolic competency of the liver S9 fractions were 7-Ethoxycoumarin, Propranolol, and Verapamil (Sigma), which were analyzed in parallel to the article. […] Aliquots were removed at distinct time points as indicated and analyzed by LC-MS/MS with detection of the compound at 254 nm. Values are expressed as percent of compound remaining at each time relative to the amount of that compound present at the starting time point.

[14] = test system: cdc2-cyclin B kinase; test: Immunoblot of cdc2-cyclin B kinase phosphorylation status; type: cell-based; conditions: phospho-cdc2 (Tyr15)
[15] = test system: Vero cells; test: Cell growth rates after compound wash-out; type: cell-based; conditions: 10 µM for 30 hours, 72-hour growth
Experimental: Vero cells were seeded at a density of 6×10^5 cells and incubated in the presence of 10 µM JMN3-003 or vehicle only for 30 hours at 37°C. Cells were then washed extensively and reseeded at a density of 1×10^5 cells per well, followed by continued incubation at 37°C and assessment of life/dead cell numbers every 24 hours using a Countess automated cell counter (Invitrogen). Cells were reseeded as before when fastest growing cultures approached confluency. Growth rates were calculated for each 24-hour time interval using the Prism software package (GraphPad Software Inc.) based on the formula Y = Y0*exp(K*X) with Y equaling life cell numbers, Y0 the Y value at the starting time (t0), and K the growth constant equaling ln(2)/doubling-time.

[16] = test system: MeV-Alaska; test: Immunodetection of virus-encoded MeV-F; type: cell-based, measles virus; conditions: 100 nM
[17] = test system: MeV-Alaska; test: Cell priming: pre-treatment, wash-out, then MeV-Alaska infection; type: cell-based, measles virus; conditions: 1.0 µM for 60 minutes
[18] = test system: MeV-Alaska particles; test: Virus pre-incubation (virucidal activity) assay; type: cell-based, measles virus; conditions: 1.0 µM for 60 minutes, diluted to 1.0 nM
[19] = test system: MeV-Alaska; test: Post-infection time-of-addition assay; type: cell-based, measles virus; conditions: 1.0 µM added at times post-infection
[20] = test system: MeV-Alaska; type: cell-based, measles virus; conditions: 100 nM, 40 hours
[21] = target: MeV RdRp (Measles morbillivirus (Measles virus), UniProt P12576); test: MeV minireplicon luciferase reporter assay; type: cell-based; conditions: BHK-T7 cells, 36 hours
Chain of MeV RdRp (P12576 whole entry, change not shown): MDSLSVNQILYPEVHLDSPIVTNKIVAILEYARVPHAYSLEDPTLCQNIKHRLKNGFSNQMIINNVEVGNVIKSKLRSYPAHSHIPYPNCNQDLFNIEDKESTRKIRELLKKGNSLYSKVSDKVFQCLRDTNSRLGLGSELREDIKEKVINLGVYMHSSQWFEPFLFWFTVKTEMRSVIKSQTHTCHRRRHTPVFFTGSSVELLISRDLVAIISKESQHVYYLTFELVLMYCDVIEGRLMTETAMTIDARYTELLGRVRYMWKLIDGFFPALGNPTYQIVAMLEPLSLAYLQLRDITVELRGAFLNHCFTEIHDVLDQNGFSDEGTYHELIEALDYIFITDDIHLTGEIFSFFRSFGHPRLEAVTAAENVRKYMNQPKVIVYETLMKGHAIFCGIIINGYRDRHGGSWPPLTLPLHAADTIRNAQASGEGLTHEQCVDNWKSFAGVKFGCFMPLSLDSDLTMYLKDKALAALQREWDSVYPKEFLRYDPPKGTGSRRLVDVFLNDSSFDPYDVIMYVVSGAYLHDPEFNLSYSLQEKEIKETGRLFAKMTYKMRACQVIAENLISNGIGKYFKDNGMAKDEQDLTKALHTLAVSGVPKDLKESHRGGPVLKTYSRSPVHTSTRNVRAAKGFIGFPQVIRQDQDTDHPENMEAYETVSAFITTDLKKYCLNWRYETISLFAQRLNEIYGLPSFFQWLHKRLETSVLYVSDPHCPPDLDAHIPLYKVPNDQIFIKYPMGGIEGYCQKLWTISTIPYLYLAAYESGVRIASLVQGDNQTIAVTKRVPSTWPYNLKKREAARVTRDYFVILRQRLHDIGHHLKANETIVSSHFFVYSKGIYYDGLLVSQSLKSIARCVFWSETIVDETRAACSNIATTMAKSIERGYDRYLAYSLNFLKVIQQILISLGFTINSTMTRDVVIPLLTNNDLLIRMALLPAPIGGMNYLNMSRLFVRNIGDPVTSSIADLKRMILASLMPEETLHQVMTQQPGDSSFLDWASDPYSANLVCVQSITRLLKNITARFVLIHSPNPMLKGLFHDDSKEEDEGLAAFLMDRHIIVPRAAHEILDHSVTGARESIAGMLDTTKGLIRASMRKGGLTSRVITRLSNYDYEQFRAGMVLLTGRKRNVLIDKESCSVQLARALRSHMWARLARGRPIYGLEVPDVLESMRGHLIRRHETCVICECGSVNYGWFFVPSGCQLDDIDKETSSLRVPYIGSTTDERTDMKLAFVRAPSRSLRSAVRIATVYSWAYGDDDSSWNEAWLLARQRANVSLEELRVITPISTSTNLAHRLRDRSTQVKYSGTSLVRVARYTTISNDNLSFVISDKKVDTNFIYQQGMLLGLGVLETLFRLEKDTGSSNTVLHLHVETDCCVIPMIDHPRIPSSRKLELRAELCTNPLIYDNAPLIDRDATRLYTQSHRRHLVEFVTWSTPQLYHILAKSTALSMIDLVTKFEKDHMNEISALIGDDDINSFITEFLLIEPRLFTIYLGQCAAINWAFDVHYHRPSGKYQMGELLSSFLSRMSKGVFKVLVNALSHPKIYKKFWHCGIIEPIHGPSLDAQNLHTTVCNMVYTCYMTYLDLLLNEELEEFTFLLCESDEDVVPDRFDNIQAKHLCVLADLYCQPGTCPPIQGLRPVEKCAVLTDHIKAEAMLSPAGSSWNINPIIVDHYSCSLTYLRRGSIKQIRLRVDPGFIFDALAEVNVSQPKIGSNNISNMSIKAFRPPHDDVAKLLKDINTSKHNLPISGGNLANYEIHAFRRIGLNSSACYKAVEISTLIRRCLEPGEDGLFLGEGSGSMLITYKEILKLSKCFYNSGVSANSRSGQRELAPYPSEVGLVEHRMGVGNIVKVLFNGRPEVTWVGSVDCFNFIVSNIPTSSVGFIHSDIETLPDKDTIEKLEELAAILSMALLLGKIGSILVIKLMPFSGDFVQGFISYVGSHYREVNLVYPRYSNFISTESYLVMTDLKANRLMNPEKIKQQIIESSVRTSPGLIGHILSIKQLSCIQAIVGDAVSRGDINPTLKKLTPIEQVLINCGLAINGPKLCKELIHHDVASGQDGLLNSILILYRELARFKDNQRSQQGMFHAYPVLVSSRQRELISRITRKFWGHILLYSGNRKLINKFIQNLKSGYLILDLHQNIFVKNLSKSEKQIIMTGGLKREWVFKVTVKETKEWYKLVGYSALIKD
Chain of MeV RdRp (P03422 whole entry partner): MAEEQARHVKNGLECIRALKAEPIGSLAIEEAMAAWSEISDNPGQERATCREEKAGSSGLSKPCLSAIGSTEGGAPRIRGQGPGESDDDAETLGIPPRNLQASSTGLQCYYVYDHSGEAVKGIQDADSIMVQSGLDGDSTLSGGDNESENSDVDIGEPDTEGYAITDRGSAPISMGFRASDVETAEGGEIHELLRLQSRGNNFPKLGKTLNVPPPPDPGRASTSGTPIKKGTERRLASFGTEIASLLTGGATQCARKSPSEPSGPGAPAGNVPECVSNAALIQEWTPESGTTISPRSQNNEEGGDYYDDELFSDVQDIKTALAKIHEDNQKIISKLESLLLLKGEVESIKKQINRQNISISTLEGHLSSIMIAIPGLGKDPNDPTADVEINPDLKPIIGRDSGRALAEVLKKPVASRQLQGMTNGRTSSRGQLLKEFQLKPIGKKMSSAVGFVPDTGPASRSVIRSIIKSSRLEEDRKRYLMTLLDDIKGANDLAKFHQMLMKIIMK
Chain of MeV RdRp (P0DXN6 whole entry partner): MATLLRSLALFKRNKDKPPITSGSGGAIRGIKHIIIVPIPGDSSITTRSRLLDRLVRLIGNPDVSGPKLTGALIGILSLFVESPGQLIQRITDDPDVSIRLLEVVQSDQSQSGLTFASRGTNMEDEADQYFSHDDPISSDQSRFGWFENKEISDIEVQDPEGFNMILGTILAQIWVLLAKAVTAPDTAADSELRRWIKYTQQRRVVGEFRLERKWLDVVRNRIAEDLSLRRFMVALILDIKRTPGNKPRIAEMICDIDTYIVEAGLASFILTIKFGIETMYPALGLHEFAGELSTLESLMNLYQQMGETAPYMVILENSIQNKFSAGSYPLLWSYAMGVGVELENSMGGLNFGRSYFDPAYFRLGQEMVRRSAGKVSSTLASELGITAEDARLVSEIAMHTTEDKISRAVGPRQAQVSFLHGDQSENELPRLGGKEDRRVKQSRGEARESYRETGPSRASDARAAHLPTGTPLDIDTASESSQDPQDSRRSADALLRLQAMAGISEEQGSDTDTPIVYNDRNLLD
Experimental: BSR T7/5 cells (5×10^5/well) were transfected with plasmid DNAs encoding MeV-L (0.24 µg), MeV-N (0.94 µg) or MeV-P (0.29 µg) and 2 µg of the MeV luciferase minigenome reporter plasmid. Control wells included identical amounts of reporter and helper plasmids but lacked the L-encoding plasmid. At the time of transfection, JMN3-003 was added as specified, while control wells received vehicle only for comparison. Thirty-six hours post-transfection, cells were lysed with Bright GLO lysis buffer and relative luciferase activities determined using the Britelite substrate and a luminescence counter as outlined above.

[22] = test system: para- and orthomyxovirus family members; test: organism not typed; type: cell-based

COc1ccc(-n2c(SC(C)C(=O)Nc3ccc(C)cc3Cl)nc3ccccc32)cc1 (stereo not drawn) [JMN3-003]
EC50 [1]: 0.01 ± 0.001 µM
EC50 [2]: 0.04 ± 0.01 µM
EC50 [3]: 0.01 ± 0.003 µM
EC50 [4]: 0.033 ± 0.031 µM
CC50 at 24 h [5]: > 75 µM
CC50 at 24 h [6]: > 75 µM
CC50 at 24 h [7]: > 75 µM
CC50 at 24 h [8]: > 75 µM
metabolic activity of primary human PBMCs [9]: unaffected
metabolic activity of primary human smooth muscle cells [10]: unaffected
metabolic activity of primary human bronchial epithelial cells [11]: only slightly affected
metabolic activity of different established cell lines [12]: unchanged
half-life at 1 µM ([13]; both sexes, human, liver S9 fractions, pH 7.4, human liver S9 fractions, up to 60 minutes, LC-MS/MS, calculated/extrapolated, read-out: half-life (t1/2)): ~3.33 h
input material remaining intact ([13]; human S-9 fractions, 60-minute exposure, 1 µM): approximately 80%
phosphorylation status of cdc2-cyclin B kinase [14]: increased steady state levels of phosphorylated cdc2-cyclin B kinase
proliferation rates after removal of compound [15]: proliferation rates resumed those of untreated control cells
expression of virus-encoded proteins, paramyxovirus infection [16]: fully blocked
inhibitory effect after cell pre-treatment and wash-out [17]: could not detect any substantial inhibitory effect
antiviral effect of preincubation of viral particles (virucidal activity) [18]: lacked any appreciable antiviral effect
inhibition profile in time-of-addition experiment [19]: very closely resembled the profile of the AS-136A RdRp blocker class
reduction of viral mRNA and antigenome copy numbers relative to vehicle [20]: > 100 fold
concentration at which luciferase reporter expression was fully blocked [21]: approximately 100 nM
EC50 ([22]; range depending on the target virus, read-out: active concentrations (anti-myxovirus activity)): 0.01 to 0.08 µM
EC50 ([22]; unidentified influenza virus, read-out: average EC50 concentrations): ~0.04 µM
